According to patent US20060134095A1, “Antioxidative composition and composition for external use” (priority 2003, published 2006):

Legend:
[1] = hydroxy radical scavenging activity by ESR spin trapping (H2O2/FeSO4, DMPO); conditions: for Remaining amount of hydroxyl radicals: relative signal intensity (DMPO-OH/MnO); for hydroxyl radical scavenging activity (in words) / hydroxyl radical scavenging activity compared with pro-vitamin C (A2P: ascorbic acid-2-phosphate Na): ESR spin trapping, Table 2
Procedure: (1) With regard to the foregoing samples, according to the direction in the following Table 1, the sample was put into a 1.5 ml Eppendorf tube, H2O2 was added, and reaction was carried out for 30 seconds after the addition for H2O2. Subsequently, the measurement was carried out by ESR, and the hydroxy radical scavenging activities of the fullerenes measured by the ESR spin trapping method were evaluated.
For preparation of the reagents, milli Q was used. As for the ESR apparatus, JES-FR30 (JEOL Co.) was used, and measurement was carried out using a high sensitive ESR water-soluble flat cell (LABOTEC Co.). The measurement conditions of ESR were as follows. Power: 4 mW, Field: 336±5, Sweep Time: 1 min., Modulation Width: 0.32 mT, Amp: 400, Response Time: 0.3 sec. Evaluation was performed with the ratio of the signal amplitude of OH to that of the paramagnetic internal standard, MnO.

[2] = superoxide scavenging activity by ESR spin trapping (hypoxanthine/xanthine oxidase, DMPO)
Procedure: (2) In addition, according to the direction in the following Table 3, each of the samples was put into a 1.5 ml Eppendorf tube, XOD was added, and reaction was carried out for 30 seconds. Subsequently, the measurement was carried out by ESR, whereby the superoxide scavenging activities measured by ESR spin trapping were evaluated. The measuring method was according to the case of the hydroxyl radical.
The measurement conditions of ESR were as follows. Power: 4 mW, Field: 336±5, Sweep Time: 1 min., Modulation Width: 0.1 mT, Amp: 790, Response Time: 0.3 sec. Evaluation was performed with the ratio of the signal amplitude of O2 to that of the paramagnetic internal standard, MnO.

[3] = test system: human skin epidermal keratinocytes; test: antioxidative effect against UVB in keratinocytes (CDCFH-DA fluorescence, intracellular peroxide/hydrogen peroxide); format: cell-based; conditions: UVB 40 mJ/cm^2, samples added before irradiation, FIG. 1
Procedure: (3) With regard to various samples, their antioxidative effects against UVB were evaluated by using keratinocytes, a human major cell type.
The results are shown in Pig. 1.

Compound	Remaining amount of hydroxyl radicals ([1]; ethanol, concentration not given, control (Milli-Q water) 3.0)	Remaining amount of superoxide anion radical ([2]; relative signal intensity (DMPO-OOH/MnO), ethanol, concentration not given, control (Milli-Q water) 3.0)	hydroxyl radical scavenging activity (in words) [1]	hydroxyl radical scavenging activity compared with pro-vitamin C (A2P: ascorbic acid-2-phosphate Na) [1]	radical scavenging activity in the superoxide test (in words; printed as hydroxyl radical scavenging activities) ([2]; ESR spin trapping, Table 4)	superoxide anion radical scavenging activity compared with pro-vitamin C (A2P) ([2]; ESR spin trapping, Table 4)	peroxide/hydrogen peroxide scavenging activity in skin cells (antioxidative effect) compared with pro-vitamin C (Asc2P-Na) [3]	Remaining amount of hydroxyl radicals ([1]; sample 9.26 μM, solubilized in 70% ethanol, diluted to 0.2%, control 3.0)
CCO [Ethanol, reference compound]	1.3	7.5	–	–	–	–	–	–
Fullerene modified with PEG [Sample F3]	–	–	significant	slightly superior to or equal to	significant	significantly superior	–	–
Hydroxylated fullerene [Sample F6]	–	–	significant	slightly superior to or equal to	–	equal to or more than	equal	0.6
